Experimental data published in patent publication US20260116910A1, “POLYCYCLIC COMPOUNDS AND METHODS THEREOF” (HEPAITECH (BEIJING) BIOPHARMA TECHNOLOGY CO., LTD., priority 2021, published 2026).
Read-outs that look alike come from different tables or passages of the source.

Tests used:
human FXR (NR1H4) = biological target: T1, human FXR (NR1H4) (Homo sapiens, UniProt Q96RI1); assay: Human FXR (NR1H4) agonist assessment, FXRE-NanoLuc reporter in HEK293T cells; type: cell-based
T1 sequence (Q96RI1 1-476 isoform Q96RI1-1): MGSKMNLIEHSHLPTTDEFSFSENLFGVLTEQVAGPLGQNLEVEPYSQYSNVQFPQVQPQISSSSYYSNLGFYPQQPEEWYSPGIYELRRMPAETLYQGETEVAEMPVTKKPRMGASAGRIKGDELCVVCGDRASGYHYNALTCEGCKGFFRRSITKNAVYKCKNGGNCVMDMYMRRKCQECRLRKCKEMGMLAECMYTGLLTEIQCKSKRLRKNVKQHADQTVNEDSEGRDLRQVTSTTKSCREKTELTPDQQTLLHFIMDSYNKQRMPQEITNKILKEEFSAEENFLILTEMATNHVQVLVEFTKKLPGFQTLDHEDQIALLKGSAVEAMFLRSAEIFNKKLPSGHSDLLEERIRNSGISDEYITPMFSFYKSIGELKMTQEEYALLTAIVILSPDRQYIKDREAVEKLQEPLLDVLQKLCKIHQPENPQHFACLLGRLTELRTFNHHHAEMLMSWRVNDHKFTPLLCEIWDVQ
Procedure, shortened: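 Read-out was NanoLuc luminescence in culture medium, measured 5 min after adding coelenterazine. Cells were HEK293T stably carrying human FXR and an FXRE reporter, exposed to compound for 24 hr at 37 °C. Vehicle was 0.01% DMSO. EC50 was obtained from sigmoid fits of gradient dilutions.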

MRGPRX4 = MRGPRX4 (Homo sapiens, UniProt Q96LA9); assay: MRGPRX4 activation, Fluo-8 Ca2+ FLIPR assay in HEK293T cells stably expressing MRGPRX4; type: cell-based; design: key to MRGPRX4 activation, Average / MRGPRX4 activation, Ave.: fluorescence change dF/F0
Procedure, shortened: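 Response measured as dF/F0: 30 s baseline, then 150 s after compound addition on FLIPR Tetra, in HHBS after 40-60 min room-temperature loading with 2 μM Fluo-8 AM.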

[1] = FXR activation, HEK293T FXRE-NanoLuc reporter, 24 hr
[2] = FXR activation, HEK293T FXRE-NanoLuc reporter, 24 hr, read-out: EC50
[3] = MRGPRX4 activation, Ca2+ fluorescence, no activation in tested range reported as III, read-out: Activity (EC50 μM)

MRGPRX4, sequence (Q96LA9 whole entry): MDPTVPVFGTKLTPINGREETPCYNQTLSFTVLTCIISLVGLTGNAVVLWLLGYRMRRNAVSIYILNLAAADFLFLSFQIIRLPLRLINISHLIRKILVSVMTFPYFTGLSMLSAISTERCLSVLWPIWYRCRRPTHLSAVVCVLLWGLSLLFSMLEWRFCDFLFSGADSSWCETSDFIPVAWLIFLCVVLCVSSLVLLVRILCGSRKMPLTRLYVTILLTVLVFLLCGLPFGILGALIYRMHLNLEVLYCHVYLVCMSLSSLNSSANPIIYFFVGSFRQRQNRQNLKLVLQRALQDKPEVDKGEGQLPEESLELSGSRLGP

Row | SMILES | Efficacy (maximum measured induction of NanoLuc, normalized to CDCA set as 100%) (human FXR (NR1H4); [1]) | EC50 (human FXR (NR1H4); [2]) [µM] | MRGPRX4 activation, Average (MRGPRX4; E3-9, Conc. (Log[M]) −4.0) | MRGPRX4 activation, Average (MRGPRX4; E3-9, Conc. (Log[M]) −4.5) | MRGPRX4 activation, Average (MRGPRX4; E3-9, Conc. (Log[M]) −5.0) | MRGPRX4 activation, Average (MRGPRX4; E3-9, Conc. (Log[M]) −5.4) | MRGPRX4 activation, Average (MRGPRX4; E3-9, Conc. (Log[M]) −5.9) | MRGPRX4 activation, Average (MRGPRX4; E3-9, Conc. (Log[M]) −6.4) | MRGPRX4 activation, Average (MRGPRX4; E3-9, Conc. (Log[M]) −6.9) | MRGPRX4 activation, Average (MRGPRX4; E3-9, Conc. (Log[M]) −7.3) | MRGPRX4 activation, Average (MRGPRX4; E3-9, Conc. (Log[M]) −7.8) | MRGPRX4 activation, Average (MRGPRX4; E3-9, Conc. (Log[M]) −8.3) | EC50 (MRGPRX4; [3]) [µM] | Efficacy (maximum measured induction of NanoLuc, normalized to CDCA set as 100%) (human FXR (NR1H4)) | further results
1 | CC[C@H]1[C@@H](O)[C@@H]2[C@H](CC[C@]3(C)[C@@H]([C@H](C)CCNC(=O)NS(=O)(=O)c4cccs4)CC[C@@H]23)[C@@]2(C)CCC(F)(F)C[C@@H]12 [10-4] | C (100%<efficacy <=300%) | < 1 | −0.004 | 0.001 | 0.008 | 0.022 | 0.013 | 0.015 | 0.013 | 0.010 | 0.010 | 0.020 | > 100 |  | 
2 | CC[C@H]1[C@@H](O)[C@@H]2[C@H](CC[C@]3(C)[C@@H]([C@H](C)CCN=C=S)CC[C@@H]23)[C@@]2(C)CCC(F)(F)C[C@@H]12 [11-2] | D (efficacy <=100%) |  | 0.030 | 0.020 | 0.010 | 0.020 | 0.020 | 0.013 | 0.013 | 0.013 | 0.013 | 0.025 |  |  | EC50 (human FXR (NR1H4)): > 10 µM; EC50 (MRGPRX4): > 100 µM
3 | CC[C@H]1[C@@H](O)[C@@H]2[C@H](CC[C@]3(C)[C@@H]([C@H](C)CCNC(=S)NS(=O)(=O)c4cccs4)CC[C@@H]23)[C@@]2(C)CCC(F)(F)C[C@@H]12 [11-3] |  | < 1 | 0.003 | 0.010 | 0.015 | 0.015 | 0.015 | 0.008 | 0.010 | 0.015 | 0.018 | 0.051 | > 100 | C (key: A: efficacy >400%; B: 300%<efficacy <=400%; C: 100%<efficacy <=300%; D: efficacy <=100%) | 
4 | CC[C@H]1[C@@H](O)[C@@H]2[C@H](CC[C@]3(C)[C@@H]([C@H](C)CCNC(=S)NS(=O)(=O)c4ccc(C(C)(C)CF)cc4)CC[C@@H]23)[C@@]2(C)CCC(F)(F)C[C@@H]12 [11-4] |  | < 1 | 0.013 | 0.013 | 0.020 | 0.015 | 0.015 | 0.013 | 0.010 | 0.015 | 0.015 | 0.022 | > 100 | B (key: A: efficacy >400%; B: 300%<efficacy <=400%; C: 100%<efficacy <=300%; D: efficacy <=100%) | 
5 | [2H]C1([2H])CC[C@@]2(C)[C@@H](C1)[C@@H](CC)[C@@H](O)[C@@H]1[C@@H]2CC[C@]2(C)[C@@H]([C@H](C)CCNC(=O)NS(=O)(=O)c3ccc(C(C)(C)CF)cc3)CC[C@@H]12 [12-2] | A (efficacy >400%) | < 1 |  |  |  |  |  |  |  |  |  |  | > 100 |  | MRGPRX4 activation, Ave. (MRGPRX4; E3-7, Conc. (Log[M]) −4): 0.000; MRGPRX4 activation, Ave. (MRGPRX4; E3-7, Conc. (Log[M]) −4.5): −0.041; MRGPRX4 activation, Ave. (MRGPRX4; E3-7, Conc. (Log[M]) −5): −0.041; MRGPRX4 activation, Ave. (MRGPRX4; E3-7, Conc. (Log[M]) −5.5): −0.054; MRGPRX4 activation, Ave. (MRGPRX4; E3-7, Conc. (Log[M]) −6): −0.041; MRGPRX4 activation, Ave. (MRGPRX4; E3-7, Conc. (Log[M]) −7): −0.027
6 | [2H]C1CC[C@@]2(C)[C@@H](C1)[C@@H](CC)[C@@H](O)[C@@H]1[C@@H]2CC[C@]2(C)[C@@H]([C@H](C)CCC(=O)O)CC[C@@H]12 (stereo partly shown) [13-1] | C (100%<efficacy <=300%) | < 1 | 0.104 | −0.009 | 0.013 | 0.013 | 0.018 | 0.015 | 0.018 | 0.013 | 0.010 | 0.013 | > 100 |  | 
7 | [2H]C1CC[C@@]2(C)[C@@H](C1)[C@@H](CC)[C@@H](O)[C@@H]1[C@@H]2CC[C@]2(C)[C@@H]([C@H](C)CCNC(=O)NS(=O)(=O)c3ccc(C(C)(C)CF)cc3)CC[C@@H]12 (stereo partly shown) [13-2] | A (efficacy >400%) | < 1 |  |  |  |  |  |  |  |  |  |  | > 100 |  | MRGPRX4 activation, Ave. (MRGPRX4; E3-7, Conc. (Log[M]) −4): −0.054; MRGPRX4 activation, Ave. (MRGPRX4; E3-7, Conc. (Log[M]) −4.5): −0.054; MRGPRX4 activation, Ave. (MRGPRX4; E3-7, Conc. (Log[M]) −5): −0.027; MRGPRX4 activation, Ave. (MRGPRX4; E3-7, Conc. (Log[M]) −5.5): −0.027; MRGPRX4 activation, Ave. (MRGPRX4; E3-7, Conc. (Log[M]) −6): −0.027; MRGPRX4 activation, Ave. (MRGPRX4; E3-7, Conc. (Log[M]) −7): 0.000
8 | [2H]C1([2H])CC[C@@]2(C)[C@@H](C1)[C@@H](CC)[C@@H](O)[C@@H]1[C@@H]2CC[C@]2(C)[C@@H]([C@H](C)CCN=C=S)CC[C@@H]12 [14-2] | C (100%<efficacy <=300%) |  | 0.090 | 0.027 | 0.027 | 0.030 | 0.020 | 0.013 | 0.013 | 0.013 | 0.010 | 0.010 |  |  | EC50 (human FXR (NR1H4)): > 10 µM; EC50 (MRGPRX4): > 100 µM
9 | [2H]C1([2H])CC[C@@]2(C)[C@@H](C1)[C@@H](CC)[C@@H](O)[C@@H]1[C@@H]2CC[C@]2(C)[C@@H]([C@H](C)CCNC(=S)NS(=O)(=O)c3cccs3)CC[C@@H]12 [14-4] |  | < 1 | 0.061 | 0.020 | 0.013 | 0.018 | 0.013 | 0.020 | 0.015 | 0.015 | 0.008 | 0.015 | > 100 | C (key: A: efficacy >400%; B: 300%<efficacy <=400%; C: 100%<efficacy <=300%; D: efficacy <=100%) | 
